According to patent US20110319392A1, “Thiazole Sulfonamide And Oxazole Sulfonamide Kinase Inhibitors” (priority 2009, published 2011):
Where a name gives a salt, the structure may show the parent alone.

Tests used:
ErbB2 = molecular target: T1, ErbB2 (Homo sapiens, UniProt P04626); experiment: ErbB-2 substrate phosphorylation assay (HTRF); format: biochemical
T1 construct: made in house; host or cells: baculovirus expression system
Outline: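 Baculovirus-expressed EGFR (0.8 nM) or ErbB2 (10 nM) in enzyme mix, preincubated 1 h at 20 °C with compound (0.00027–47.6 μM final), then 90 min at 20 °C with substrate mix of 20 μM ATP, 0.8 uM biotinylated Peptide C, MnCl2, MOPS pH 7.5. Phosphotyrosine by HTRF; pIC50 reported.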

Colo205 tumor cells = experiment: Cell growth inhibition assay (CellTiter-Glo), Colo205; format: cell-based, Human; conditions: Homo sapiens, COLO 205, 72 h; 3 days incubation
Outline: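 Cells plated at 500 cells/well in their growth media, dosed next day with nine-step 1:3 compound dilutions (final DMSO 0.2%), then incubated 3 days at 37° C, 5% CO2. Total ATP read by CellTiter-Glo luminescence as a surrogate for cell number; IC50 interpolated from 4-parameter fit versus DMSO controls.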

HT-29 tumor cells = experiment: Cell growth inhibition assay (CellTiter-Glo), HT-29; format: cell-based, Human; conditions: Homo sapiens
Outline: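 Cells seeded at 500/well (HN5 and HT-29 in high-glucose DMEM/10% FBS; A375P F11s in RPMI/10% FBS with pyruvate; SK-MEL-3 in McCoy's 5A/15% FBS), then exposed next day to 1:3 serial compound dilutions (0.2% DMSO) for 3 days at 37° C. CellTiter-Glo luminescence measured ATP; IC50 derived by 4-parameter fit.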

T1 sequence (P04626 23-1255): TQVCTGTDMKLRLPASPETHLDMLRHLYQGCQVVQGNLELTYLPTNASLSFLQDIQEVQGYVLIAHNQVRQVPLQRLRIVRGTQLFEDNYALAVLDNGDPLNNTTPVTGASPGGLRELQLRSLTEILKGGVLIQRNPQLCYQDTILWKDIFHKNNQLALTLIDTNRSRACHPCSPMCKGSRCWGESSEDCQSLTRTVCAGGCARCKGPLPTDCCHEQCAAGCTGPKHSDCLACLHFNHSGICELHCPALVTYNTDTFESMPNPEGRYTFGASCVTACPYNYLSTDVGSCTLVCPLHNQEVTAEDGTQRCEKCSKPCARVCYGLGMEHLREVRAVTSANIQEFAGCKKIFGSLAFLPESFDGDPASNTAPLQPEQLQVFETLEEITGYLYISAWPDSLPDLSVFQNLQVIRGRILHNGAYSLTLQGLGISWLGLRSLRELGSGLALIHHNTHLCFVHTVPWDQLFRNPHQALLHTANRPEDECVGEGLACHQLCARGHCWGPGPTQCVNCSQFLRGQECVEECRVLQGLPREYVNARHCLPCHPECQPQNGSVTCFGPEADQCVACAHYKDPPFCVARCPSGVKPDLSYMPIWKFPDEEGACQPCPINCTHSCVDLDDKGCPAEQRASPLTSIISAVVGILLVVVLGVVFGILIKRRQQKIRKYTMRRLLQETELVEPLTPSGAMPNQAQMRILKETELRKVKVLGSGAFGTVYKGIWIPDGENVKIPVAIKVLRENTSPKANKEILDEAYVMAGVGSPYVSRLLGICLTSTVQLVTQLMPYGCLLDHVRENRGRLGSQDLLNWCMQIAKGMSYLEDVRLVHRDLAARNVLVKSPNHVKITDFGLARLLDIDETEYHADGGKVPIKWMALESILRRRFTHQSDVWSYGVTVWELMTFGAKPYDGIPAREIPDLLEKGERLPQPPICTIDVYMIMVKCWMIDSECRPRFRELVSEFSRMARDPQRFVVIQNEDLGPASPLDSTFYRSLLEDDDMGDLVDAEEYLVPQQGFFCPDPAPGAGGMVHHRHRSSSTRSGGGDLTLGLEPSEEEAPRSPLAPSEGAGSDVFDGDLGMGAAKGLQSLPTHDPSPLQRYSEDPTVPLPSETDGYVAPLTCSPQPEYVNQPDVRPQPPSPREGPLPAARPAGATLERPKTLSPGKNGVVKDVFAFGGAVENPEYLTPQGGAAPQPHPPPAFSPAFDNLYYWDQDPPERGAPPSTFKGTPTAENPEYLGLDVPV

Row | SMILES | IC50 (ErbB2) [nM] | IC50 (Colo205 tumor cells) [nM] | IC50 (HT-29 tumor cells) [nM]
1 | CC(C)c1nc(-c2ccc(F)c(NS(=O)(=O)c3c(F)cccc3F)c2)c(-c2ccnc(Nc3ccc(N4CCN(CCF)CC4)c(F)c3)n2)s1 [Example 25] | < 100 | < 100 | 100 to 1000
2 | CC(C)c1nc(-c2cccc(NS(=O)(=O)c3ccco3)c2)c(-c2ccnc(Nc3ccc(N4CCOCC4)nc3)n2)s1 [Example 53] | > 1000 | < 100 | < 100
3 | CN(C)c1nc(-c2ccc(F)c(NS(=O)(=O)c3c(F)cccc3F)c2)c(-c2ccnc(Nc3ccc(N4CCOCC4)nc3)n2)s1 [Example 27, N-{5-[2-(Dimethylamino)-5-(2-{[6-(4-morpholinyl)-3-pyridinyl]amino}-4-pyrimidinyl)-1,3-thiazol-4-yl]-2-fluorophenyl}-2,6-difluorobenzenesulfonamide] | 100 to 1000 | 100 to 1000 | 100 to 1000
4 | CC(C)(C)c1nc(-c2ccc(F)c(NS(=O)(=O)c3c(F)cccc3F)c2)c(-c2ccnc(Nc3ccc(N4CCN(CCF)CC4)c(F)c3)n2)s1 [Example 99] | < 100 | < 100 | > 1000
5 | CC(C)c1nc(-c2ccc(F)c(NS(=O)(=O)c3c(F)cccc3F)c2)c(-c2ccnc(Nc3cccc(CCS(N)(=O)=O)c3)n2)s1 [Example 113] | < 100 | 100 to 1000 | > 1000
6 | COc1ccc(S(C)(=O)=O)cc1Nc1nccc(-c2sc(N3CCOCC3)nc2-c2cccc(NS(=O)(=O)c3c(F)cccc3F)c2F)n1 [Example 157] | > 1000 | < 100 | < 100
7 | CC(C)c1nc(-c2cc(F)c(F)c(NS(=O)(=O)c3cccc(F)c3)c2)c(-c2ccnc(Nc3cnc(N4CCOCC4)c(F)c3)n2)s1 [Example 31, N-{2,3-Difluoro-5-[5-(2-{[5-fluoro-6-(4-morpholinyl)-3-pyridinyl]amino}-4-pyrimidinyl)-2-(1-methylethyl)-1,3-thiazol-4-yl]phenyl}-3-fluorobenzenesulfonamide] | > 1000 | 100 to 1000 | < 100
8 | CC(C)c1nc(-c2cccc(NS(=O)(=O)c3c(F)cccc3F)c2F)c(-c2ccnc(Nc3ccc(N4CCOCC4)nc3)n2)s1 [Example 123] | > 1000 | < 100 | < 100
9 | O=S(=O)(Nc1cccc(-c2nc(N3CCCCC3)sc2-c2ccnc(Nc3ccc(N4CCOCC4)nc3)n2)c1)c1c(F)cccc1F [Example 151] | > 1000 | < 100 | < 100
10 | CC(C)c1nc(-c2ccc(F)c(NS(=O)(=O)c3ccccc3C#N)c2)c(-c2ccnc(Nc3ccc(N4CCOCC4)nc3)n2)s1 [Example 107] | 100 to 1000 | 100 to 1000 | 100 to 1000
11 | CC(C)c1nc(-c2cccc(NS(=O)(=O)c3c(F)cccc3F)c2)c(-c2ccnc(Nc3ccc(N4CCOCC4)c(C(=O)O)c3)n2)s1 [Example 14, 5-({4-[4-(3-{[(2,6-Difluorophenyl)sulfonyl]amino}phenyl)-2-(1-methylethyl)-1,3-thiazol-5-yl]-2-pyrimidinyl}amino)-2-(4-morpholinyl)benzoic acid] | > 1000 | < 100 | 100 to 1000
12 | CC(C)c1nc(-c2ccnc(NS(=O)(=O)c3c(F)cccc3F)c2)c(-c2ccnc(Nc3ccc(N4CCOCC4)nc3)n2)s1 [Example 32, 2,6-Difluoro-N-{4-[2-(1-methylethyl)-5-(2-{[6-(4-morpholinyl}-3-pyridinyl]amino}-4-pyrimidinyl)-1,3-thiazol-4-yl]-2-pyridinyl}benzenesulfonamide] | > 1000 | < 100 | > 1000
13 | CC(C)c1nc(-c2ccc(F)c(NS(=O)(=O)c3c(F)cccc3F)c2)c(-c2ccnc(Nc3ccc(N4CCN5CCOC[C@H]5C4)nc3)n2)s1 [Example 97] | 100 to 1000 | < 100 | > 1000
14 | CCc1nc(-c2cccc(CNS(=O)(=O)c3ccccc3)c2)c(-c2ccnc(Nc3ccc(N4CCOCC4)c(F)c3)n2)s1 [Example 34] | 100 to 1000 | 100 to 1000 | > 1000
15 | O=S(=O)(Nc1cccc(-c2ncsc2-c2ccnc(Nc3ccc(N4CCOCC4)nc3)n2)c1)c1c(F)cccc1F [Example 162] | > 1000 | < 100 | 100 to 1000
16 | CC(C)c1nc(-c2cc(F)c(F)c(NS(=O)(=O)c3cccc(F)c3)c2)c(-c2ccnc(Nc3ccc(N4CCN(CCF)CC4)c(F)c3)n2)s1 [Example 101] | 100 to 1000 | 100 to 1000 | 100 to 1000

Row | SMILES | IC50 (ErbB2) [nM] | IC50 (Colo205 tumor cells) [nM] | IC50 (HT-29 tumor cells) [nM]
17 | CC(C)c1nc(-c2cccc(NS(=O)(=O)c3c(F)cccc3F)c2F)c(-c2ccnc(Nc3ccc(N4CCN(CCF)CC4)c(F)c3)n2)s1 [Example 29, 2,6-Difluoro-N-{2-fluoro-3-[5-[2-({3-fluoro-4-[4-(2-fluoroethyl)-1-piperazinyl]phenyl}amino)-4-pyrimidinyl]-2-(1-methylethyl)-1,3-thiazol-4-yl]phenyl}benzenesulfonamide] | 100 to 1000 | < 100 | 100 to 1000
18 | CC(=O)N1CCN(c2ccc(Nc3nccc(-c4sc(C(C)C)nc4-c4cccc(NS(=O)(=O)c5ccccc5F)c4)n3)cn2)CC1 [Example 12, N-{3-[5-(2-{[6-(4-Acetyl-1-piperazinyl)-3-pyridinyl]amino}-4-pyrimidinyl)-2-(1-methylethyl)-1,3-thiazol-4-yl]phenyl}-2-fluorobenzenesulfonamide] | 100 to 1000 | < 100 | < 100
19 | CC(C)c1nc(-c2cccc(NS(=O)(=O)c3c(F)cccc3F)c2)c(-c2ccnc(Nc3ccc(N4CCN5CCOC[C@H]5C4)nc3)n2)s1 [Example 15] | 100 to 1000 | < 100 | < 100
20 | COc1ccc(S(=O)(=O)Nc2cccc(-c3nc(C(C)C)sc3-c3ccnc(Nc4ccc(N5CCOCC5)nc4)n3)c2)cn1 [Example 49] | > 1000 | < 100 | < 100
21 | O=S(=O)(Nc1cccc(-c2nc(N3CCCC3)sc2-c2ccnc(Nc3ccc(N4CCN(CCF)CC4)c(F)c3)n2)c1)c1c(F)cccc1F [Example 21, 2,6-Difluoro-N-{3-[5-[2-({3-fluoro-4-[4-(2-fluoroethyl)-1-piperazinyl]phenyl}amino)-4-pyrimidinyl]-2-(1-pyrrolidinyl)-1,3-thiazol-4-yl]phenyl}benzenesulfonamide] | < 100 | < 100 | < 100
22 | O=S(=O)(Nc1cc(-c2nc(N3CCCC3)oc2-c2ccnc(Nc3ccc(N4CCN(CCF)CC4)c(F)c3)n2)ccc1F)c1c(F)cccc1F [Example 114] | 100 to 1000 | 100 to 1000 | > 1000
23 | COc1cc(N2CCN(CCS(C)(=O)=O)CC2)c(C)cc1Nc1nccc(-c2sc(N3CCOCC3)nc2-c2cccc(NS(=O)(=O)c3c(F)cccc3F)c2)n1 [Example 128] | < 100 | < 100 | < 100
24 | CS(=O)(=O)CCN1CCN(c2ccc(Nc3nccc(-c4oc(N5CCCC5)nc4-c4ccc(F)c(NS(=O)(=O)c5c(F)cccc5F)c4)n3)cc2F)CC1 [Example 119] | 100 to 1000 | 100 to 1000 | 100 to 1000
25 | O=S(=O)(Nc1cc(-c2nc(N3CCOCC3)sc2-c2ccnc(Nc3ccc(N4CCOCC4)nc3)n2)ccc1F)c1c(F)cccc1F [Example 121] | 100 to 1000 | < 100 | 100 to 1000
26 | CS(=O)(=O)c1cccc(Nc2nccc(-c3sc(N4CCOCC4)nc3-c3cccc(NS(=O)(=O)c4c(F)cccc4F)c3Cl)n2)c1 [Example 145] | > 1000 | < 100 | < 100
27 | CC(C)c1nc(-c2ccnc(NS(=O)(=O)c3c(F)cccc3F)c2)c(-c2ccnc(Nc3cnc(N4CCOCC4)c(F)c3)n2)s1 [Example 33] | > 1000 | < 100 | 100 to 1000
28 | Cc1nc(-c2cccc(NS(=O)(=O)c3c(F)cccc3F)c2)c(-c2ccnc(Nc3ccc(N4CCOCC4)nc3)n2)s1 [Example 133] | > 1000 | < 100 | < 100
29 | CC(C)c1nc(-c2ccc(F)c(NS(=O)(=O)c3ccccc3F)c2)c(-c2ccnc(Nc3ccc(N4CCN(CCS(C)(=O)=O)CC4)c(F)c3)n2)s1 [Example 22, 2-Fluoro-N-{2-fluoro-5-[5-{2-[(3-fluoro-4-}4-[2-(methylsulfonyl)ethyl]-1-piperazinyl}phenyl)amino]-4-pyrimidinyl}-2-(1-methylethyl)-1,3-thiazol-4-yl]phenyl}benzenesulfonamide hydrochloride] | < 100 | < 100 | 100 to 1000
30 | COc1cc(N2CCC(N3CCN(CCS(C)(=O)=O)CC3)CC2)ccc1Nc1nccc(-c2sc(C(C)C)nc2-c2cccc(NS(=O)(=O)c3c(F)cccc3F)c2)n1 [Example 20, 2,6-Difluoro-N-{3-[2-(1-methylethyl)-5-(2-{[2-(methyloxy)-4-(4-{4-[2-(methylsulfonyl)ethyl]-1-piperazinyl}-1-piperidinyl)phenyl]amino}-4-pyrimidinyl)-1,3-thiazol-4-yl]phenyl}benzenesulfonamide] | < 100 | < 100 | > 1000
31 | CC(=O)N1CCN(c2ccc(Nc3nccc(-c4sc(C(C)C)nc4-c4cccc(NS(=O)(=O)c5cn(C)cn5)c4)n3)cn2)CC1 [Example 36] | > 1000 | 100 to 1000 | > 1000
